Experimental data as given in patent publication US8859625B2, “Methods to prepare penta-1,4-dien-3-ones and substituted cyclohexanones and derivatives with antitumoral and antiparasitic properties, the compounds and their uses” (Universidade Bandeirante de Sao Paulo-Academia, Paulista …, priority 2006, dated 2014).
Read-outs that look alike come from different tables or passages of the source.

Experiments:
B16F10 melanoma cells = assay: Cytotoxic and antiproliferative effects by the MTT colorimetric method on B16F10 melanoma cells; assay type: cell-based, murine; conditions: for IC50: Mus musculus
Description: Analysis of Cytotoxic and Antiproliferative Effects of HB-1 Compound and Miglyol 810® as Control by the MTT Colorimetric Method on B16F10 Melanoma Cells.
The colorimetric methodology for the respiratory route of mitochondria MTT (3-(4,5-dimethylthiazol-2-yl)2,5-diphenyl tetrazolium bromide) was used, as described by MOSMANN (1983). This method is based on the reduction of MTT to formazan by living cells. After growth and in vitro confluence of normal and tumoral cells, different concentrations of the HB-1 compound diluted in Miglyol 810® and the diluent-control (Miglyol 810®) have been added on the adhering cells, incubated for 24 hour. After the referred period, 10 μl of MTT (5 mg/mL) were added and incubated for 3 hours in stove with 5% CO2 at 37° C. After this period, the content of the culture plates were centrifuged for 2 minutes at 1800 rpm, at 4° C., the supernatant was removed and 100 μL of dimethyl sulfoxide (DMSO) were added to dissolve formazan crystals previously constituted and precipitated. The absorbances were obtained by an ELISA reader at 540 nm (TiterTek Multiskan) wavelength, with the results obtained shown in FIG. 12.
IC50 Evaluation for B16F10 Melanoma Cells, Obtained from the Linear Equation.

[1] = Acute and subchronic toxicology in Balb-c mice by the endovenous route; assay type: in vivo
Experimental: Acute and Subchronic Toxicology of DM-1 in Balb-c Mice by the Endovenous Route.
Balb-c mice were weighted and housed in the biotery, subdivided into groups of 05 animals per cage and, after two weeks, received the DM-1 compound in different concentrations by the endovenous route. The compound was administered in a 0.2 mL volume using microseringe, for all concentrations, through the retro-orbital venous plexus.

T lymphocytes = assay: Cytotoxic and proliferative activity on T lymphocytes (MTT, compared to PHA); assay type: cell-based, C57BL/6J mice
Experimental: Preparation of T Lymphocytes
Groups composed by 5 C57BL/6J mice of 2 months of age were sacrificed by cervical displacement and its lymph nodes chain from axillary, popliteal, and mesenteric regions were removed under sterile conditions. Lymph nodes were maintained in RPMI-1640 culture medium supplemented with 10% inactivated bovine fetal serum at 56° C. in the presence of antibiotics, and debridement was performed with the assistance of a bistury. The resulting cell suspension was filtered through 30 μm dialysis membrane and centrifuged for 10 minutes at 1800 rpm at 4° C. Cell pellet was resuspended in 5 mL RPMI complete medium and, after that, incubated in Petri dishes containing 10 mL bovine fetal serum for 1 hour in stove, at 37° C. and 5% CO2. […] Cell concentration was adjusted in Mallassez chamber to a 5×10^5 cells/mL concentration and cell viability was determined by the exclusion method with Trypan blue.
Cytotoxic and proliferative activities were determined in a 96 well plate and compared to mitogenic activity of phytohemagglutinin (PHA) and evaluated by the MTT calorimetric method. The obtained values were expressed as percentage.
The data of each experiment were statistically analysed by the ANOVA variance test with de p<0.05 significance.

[2] = cited from earlier work
[3] = system: human fibroblasts of normal skin; assay: MTT cytotoxic and antiproliferative effects on human fibroblasts of normal skin; assay type: cell-based; conditions: diluted in Miglyol 810, 24 hours
Experimental: Analysis of Cytotoxic Effects by the MTT Method and Antiproliferative Effects for HB-2 Compound Diluted in Miglyol 810® and Miglyol 810® Control on Human Fibroblasts of Normal Skin.
Skin fragments were asseptically collected during surgical procedures for tissue remotion in aesthetic surgery and immediately transferred to 50 mL sterile vials containing HAM F-12 (Gibco) culture medium supplemented with 20% of bovine fetal serum. Fragments were chopped, cleaned, and the smaller fragments were cultivated in Petri dishes in a Ham-F12 culture medium supplemented with 10% bovine fetal serum, and kept in humidified stoven at 37° C. and 5% C02.
When attained subconfluence, the cells were trypsinized for 5 minutes, inactivated with 10% bovine fetal serum, centrifuged for 10 minutes at 2000 rpm at 4° C., transferred to 96 well flat bottom plates, and cultivated for 24 hours in a CO2 5% stoven. Fibroblasts were treated for 24 hours with different concentrations of HB-2 compound diluted in Miglyol 810® and the control group received the same volumes of Miglyol alone; cytotoxic and antiproliferative effects were evaluated by the MTT colorimetric method.

B16F10 melanoma = B16F10 melanoma tumors implanted in C57BL/6J mice, intraperitoneal treatment; tumor area and volume; assay type: in vivo; conditions: diluted in Miglyol 810, intraperitoneal 100 μl daily, 14 days
Experimental: After the Day 4 of tumor cells implant (2×10^5 tumoral cells/mL), the animals were splitted in two groups: the test group, treated with HB-1 compound diluted in Miglyol 810® and the control group, which received only the diluent (Miglyol 810®) in the same volume as the test group. The animals were daily treated by intraperitoneal route. Concomitantly, measurements of animal weight and tumor size (two measures—length×width) were performed and tumor aspect registered by photographies.
After the Day 14, the animals were sacrificed by cervical displacement, tumors were removed, and necropsy performed to remove all internal organs and macroscopic lesions for hystopathologic analysis.
Tumoral parameters were obtained by calculation of tumor average area (A) and volume (V), through the following formulas A=πR^2 and V=4/3πR^3, where (R=average tumor radius). […]
After tumoral cell implant, the animals were treated with the HB-2 compound diluted in Miglyol 810® and with (HB2+HB-1) conjugate whereas the control group received the same volume of diluent and by the same administration route (intraperitoneal—100 μl). Daily, the animals received the compounds (100 μl) and the control group received Miglyol 810®, the animals were weighted, and the tumors were measured (length×width) and photographed. […]

With COc1cc(/C=C/C(=O)/C=C/c2ccc(O)c(OC)c2)ccc1[O-].[Na+] [DM-1, sodium 4-[5-(4-hydroxy-3-methoxy-phenyl)-3-oxo-penta-1,4-dienyl]-2-methoxy-phenolate] the “increase in cytotoxic effects (in vitro efficacy)” value (B16F10 melanoma cells; monosodium composition relative to HB-1) was 7.0 fold, the “LD50 compared to doxorubicin, fold smaller” value ([1]; Balb-c, mouse, in vivo, 24 h) was 35 fold and the “50% lethal dose (DL50)” value ([1]; endovenous route) was 14 mg/kg. The maximum tolerable dose ([1]; endovenous route) was 14 mg/kg, the “behavioral alteration after the administration” value ([1]; endovenous, 0.2 mL via retro-orbital venous plexus) was “no behavioral alteration was observed” and the “macroscopic and hystopathologic alterations of the internal organs” value ([1]; necropsy at Day 30) was “no significant macroscopic and hystopathologic alterations”. For the same compound, the “acute respiratory and cardiac toxicity” value ([1]; preclinic tests) was “has not present any suggestive effect of acute respiratory and cardiac toxicity”.

For COc1cc(/C=C/C(=O)/C=C/c2ccc([O-])c(OC)c2)ccc1[O-].[Na+].[Na+] [DM-2, disodium 3-oxo-penta-1,4-dienyl-bis(2-methoxy-phenolate)], the “in vitro efficacy in relation to the monosodium DM-1 compound, fold smaller” value (B16F10 melanoma cells) was “around 6.0 fold”, the IC50 (B16F10 melanoma cells; B16-F10, read-out: DOSE, footnote: obtained by preclinic experimental models) was 1.9 mg/L and the IC50 (B16F10 melanoma cells; B16-F10, sodium salts, B16F10 murine melanoma, MTT, read-out: IC50) was 7.95 mg/L. For the same compound, the “toxic activity on normal cells” value (T lymphocytes; T lymphocytes) was “no toxic activity on normal cells”, the “proliferative activity of T lymphocytes” value (T lymphocytes; different concentrations, compared to PHA 2.5 and 5.0 μg) was “induced no proliferative activity” and the “LETAL DOSE 50%” value ([1]; comparison table, own compound) was 700 mg/kg.

In the case of COc1cccc2c1C(=O)c1c(O)c3c(c(O)c1C2=O)C[C@@](O)(C(=O)CO)C[C@@H]3O[C@H]1C[C@H](N)[C@H](O)[C@H](C)O1 [Doxorubicin], the “50% LETHAL DOSE” value ([2]; background table) is given as 20 mg/kg and the “LETAL DOSE 50%” value ([2]; comparison table, drugs of the therapeutics) is given as 20 mg/kg.

With COc1cc(C=CC(=O)C=Cc2ccc(OC(C)=O)c(OC)c2)ccc1OC(C)=O [HB-2, 4-[5-(4-acetoxy-3-methoxy-phenyl)-3-oxo-penta-1,4-dienyl]-2-methoxy-phenylacetate] the “cytotoxic effect in normal human fibroblasts” value [3] was “no cytotoxic effect was observed” and the “reduction of tumoral burden (tumor area and volume)” value (B16F10 melanoma) was 60%.
